US7550480B2, “Compounds” (SmithKline Beecham Corporation, priority 2003, dated 2009)
“And” between values parts separate entries of the source, which are not always exact repeats. Equal entries are not always repeated.

Columns and labels:
CSBP/p38 [1] = target: T1, CSBP/p38 (Homo sapiens, UniProt Q16539); test: Fluorescence Anisotropy Kinase Binding Assay; conditions: pKi is the negative log of the Ki; p38 enzyme 12 nM, fluorescent ligand 5 nM
Procedure: The concentration of kinase enzyme should preferably be ≧1×Kf. The concentration of fluorescent ligand required will depend on the instrumentation used, and the fluorescent and physicochemical properties. The concentration used must be lower than the concentration of kinase enzyme, and preferably less than half the kinase enzyme concentration.
All components dissolved in Buffer of final composition 62.5 mM HEPES, pH 7.5, 1.25 mM CHAPS, 1.25 mM […], 12.5 mM MgCl2 3.3% DMSO.
p38 Enzyme concentration: 12 nM
Fluorescent ligand concentration: 5 nM
Test compound concentration: 0.1 nM-100 uM
Components incubated in 30 ul final volume in NUNC 384 well black microtitre plate until equilibrium reached (5-30 mins)
Fluorescence anisotropy read in LJL Acquest.
Definitions: Ki=dissociation constant for inhibitor binding
• Kf=dissociation constant for fluorescent ligand binding The fluorescent ligand is the following compound:
[drawing 13] which is derived from 5-[2-(4-aminomethylphenyl)-5-pyridin-4-yl-1H-imidazol-4-yl]-2-chlorophenol and rhodamine green.

CSBP/p38 [2] = target: T1, CSBP/p38; test: CSBP/p38 Kinase Assay (32P transfer to EGFR-derived T669 peptide); type: biochemical; parameters: made in house; host or cells: yeast; conditions: for IC50: 0.17 mM ATP, 0.67 mM T669 peptide, 2-4 nM yeast-expressed activated p38, 25 min at 37° C.; for active as inhibitors of the CSBP kinase: statement in words, assay not given
Procedure: This assay measures the CSBP/p38-catalyzed transfer of ^32P from [a-^32P]ATP to threonine residue in an epidermal growth factor receptor (EGFR)-derived peptide (T669) with the following sequence: […] (SEQ ID 1) (residues 661-681). (See Gallagher et al., “Regulation of Stress Induced Cytokine Production by Pyridinyl Imidazoles: Inhibition of CSBP Kinase”, BioOrganic & Medicinal Chemistry, 1997, 5, 49-64).
Reactions are carried in round bottom 96 well plate (from Corning) in a […] volume. […] Filters are washed with 75 mM phosphoric acids, and incorporated 32P was quantified using beta scintillation counter. Under these conditions, the specific activity of p38 will be determined and is generally 400-450 pmol/pmol enzyme, and the activity being linear for up to 2 hours of incubation. The kinase activity values are obtained after subtracting values generated in the absence of substrate which were 10-15% of total values.

T1 sequence (Q16539 whole entry): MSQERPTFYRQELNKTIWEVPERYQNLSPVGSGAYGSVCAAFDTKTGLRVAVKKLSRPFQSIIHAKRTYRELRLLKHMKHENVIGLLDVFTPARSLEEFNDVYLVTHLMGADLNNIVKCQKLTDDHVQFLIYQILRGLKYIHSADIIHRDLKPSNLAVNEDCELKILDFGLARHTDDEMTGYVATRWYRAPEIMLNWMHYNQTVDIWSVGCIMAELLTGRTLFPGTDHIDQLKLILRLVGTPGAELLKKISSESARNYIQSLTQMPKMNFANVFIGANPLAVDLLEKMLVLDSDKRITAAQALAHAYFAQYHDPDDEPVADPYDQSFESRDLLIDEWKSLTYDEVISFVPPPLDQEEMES

Structure (SMILES): COc1cc2c(ccc(=O)n2-c2ccccc2Cl)c(-c2ccccc2Cl)c1Br (single isomer, unassigned) [Example 17, 6-bromo-1,5-bis(2-chlorophenyl)-7-(methyloxy)-2(1H)-quinolinone]
- Ki (CSBP/p38 [1]): 20 nM and 12.6 nM

Structure (SMILES): O=c1ccc2c(-c3ccccc3)nccc2n1Cc1ccccc1 [Example 9, 1-Benzyl-5-phenyl-1H-[1,6]naphthyridin-2-one]
- IC50 (CSBP/p38 [2]): 60 nM

Structure (SMILES): O=c1ccc2c(-c3ccccc3)nccc2n1-c1ccccc1 [Example 10, 1,5-Diphenyl-1H-[1,6]naphthyridin-2-one]
- IC50 (CSBP/p38 [2]): 200 nM

Structure (SMILES): Cn1c(=O)ccc2c(-c3ccccc3)nccc21 [Example 11, 1-Methyl-5-phenyl-1H-[1,6]naphthyridin-2-one]
- IC50 (CSBP/p38 [2]): 5000 nM
- active as inhibitors of the CSBP kinase (CSBP/p38 [2]): active

Structure (SMILES): O=c1ccc2c(-c3ccccc3)nccc2[nH]1 [Example 12, 5-Phenyl-1H-[1,6]naphthyridin-2-one]
- IC50 (CSBP/p38 [2]): 13400 nM
- active as inhibitors of the CSBP kinase (CSBP/p38 [2]): active
